Laboratory results taken from ChEMBL document CHEMBL1146972, “Specific inhibitors of Plasmodium falciparum thioredoxin reductase as potential antimalarial agents” (Bioorg Med Chem Lett, 2006).

What was measured:
[1] = target: T1, Thioredoxin reductase (Plasmodium falciparum 3D7) (UniProt P61076); assay: Inhibition of Plasmodium falciparum TrxR at 100 uM
T1 sequence (whole entry): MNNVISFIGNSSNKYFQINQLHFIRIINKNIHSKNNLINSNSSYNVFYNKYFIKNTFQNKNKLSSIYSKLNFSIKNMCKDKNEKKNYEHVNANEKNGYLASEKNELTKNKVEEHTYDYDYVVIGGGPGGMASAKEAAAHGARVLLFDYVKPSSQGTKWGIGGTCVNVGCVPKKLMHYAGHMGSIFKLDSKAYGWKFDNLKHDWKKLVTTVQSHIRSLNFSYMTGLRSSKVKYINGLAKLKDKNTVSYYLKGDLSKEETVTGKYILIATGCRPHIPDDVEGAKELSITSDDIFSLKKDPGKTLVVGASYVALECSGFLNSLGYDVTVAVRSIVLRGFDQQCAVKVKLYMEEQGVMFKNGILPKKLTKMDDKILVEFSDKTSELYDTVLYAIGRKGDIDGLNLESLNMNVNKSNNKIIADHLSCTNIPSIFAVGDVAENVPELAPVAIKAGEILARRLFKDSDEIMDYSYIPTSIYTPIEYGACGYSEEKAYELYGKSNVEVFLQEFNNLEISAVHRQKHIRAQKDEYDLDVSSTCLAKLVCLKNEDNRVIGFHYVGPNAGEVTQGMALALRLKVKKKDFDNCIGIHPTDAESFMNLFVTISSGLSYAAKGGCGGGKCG

[2] = target: Thioredoxin reductase (Homo sapiens, UniProt Q16881+Q9NNW7+Q86VQ6); assay: Inhibition of human TrxR; assay type: protein assay
[3] = target: T2, Thioredoxin reductase (Plasmodium falciparum 3D7, UniProt P61076); assay: Inhibition of Plasmodium falciparum TrxR
T2 sequence (P61076 whole entry): T1 sequence (whole entry)

[4] = target: T3, Glutathione reductase, mitochondrial (Homo sapiens) (UniProt P00390); assay: Inhibition of human GR at 2 uM
T3 sequence (whole entry): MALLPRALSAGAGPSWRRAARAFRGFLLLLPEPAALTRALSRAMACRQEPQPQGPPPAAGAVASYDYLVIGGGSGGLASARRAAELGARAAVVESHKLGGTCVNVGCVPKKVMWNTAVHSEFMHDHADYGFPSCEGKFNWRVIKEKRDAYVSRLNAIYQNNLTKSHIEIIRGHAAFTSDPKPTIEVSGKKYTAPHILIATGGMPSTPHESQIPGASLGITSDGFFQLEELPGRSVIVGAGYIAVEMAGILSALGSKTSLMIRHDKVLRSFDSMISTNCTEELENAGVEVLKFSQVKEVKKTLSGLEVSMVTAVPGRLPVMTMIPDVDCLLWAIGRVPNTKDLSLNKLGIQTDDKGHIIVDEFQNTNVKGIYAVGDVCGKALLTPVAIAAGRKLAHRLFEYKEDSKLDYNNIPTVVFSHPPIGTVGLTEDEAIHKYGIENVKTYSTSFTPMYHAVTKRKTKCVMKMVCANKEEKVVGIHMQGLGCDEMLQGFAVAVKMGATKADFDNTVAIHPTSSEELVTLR

[5] = target: Glutathione reductase (Plasmodium falciparum 3D7) (UniProt O15770); assay: Inhibition of Plasmodium falciparum GR at 2 uM
Sequence of Glutathione reductase (Plasmodium falciparum 3D7) (O15770 whole entry): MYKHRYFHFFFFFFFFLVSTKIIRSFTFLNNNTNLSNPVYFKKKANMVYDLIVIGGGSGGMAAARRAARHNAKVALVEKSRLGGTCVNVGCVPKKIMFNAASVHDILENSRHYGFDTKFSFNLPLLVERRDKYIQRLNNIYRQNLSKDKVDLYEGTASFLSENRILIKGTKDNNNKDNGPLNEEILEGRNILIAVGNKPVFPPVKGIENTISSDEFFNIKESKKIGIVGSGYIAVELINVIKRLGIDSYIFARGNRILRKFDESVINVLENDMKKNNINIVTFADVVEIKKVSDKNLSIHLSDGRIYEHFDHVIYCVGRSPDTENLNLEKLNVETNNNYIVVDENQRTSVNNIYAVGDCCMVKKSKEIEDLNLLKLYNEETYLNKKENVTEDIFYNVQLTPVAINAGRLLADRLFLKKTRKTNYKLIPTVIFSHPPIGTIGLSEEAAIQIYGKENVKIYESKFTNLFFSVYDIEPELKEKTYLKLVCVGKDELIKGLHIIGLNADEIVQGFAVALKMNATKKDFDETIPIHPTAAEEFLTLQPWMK

[6] = system: Plasmodium falciparum; assay: Growth inhibition against Plasmodium falciparum K1; assay type: functional, organism-based
[7] = target: T1, Thioredoxin reductase (Plasmodium falciparum 3D7); settings: 100 uM
[8] = target: T1, Thioredoxin reductase (Plasmodium falciparum 3D7); settings: 2 uM
[9] = target: T1, Thioredoxin reductase (Plasmodium falciparum 3D7); settings: 2 uM; remark: listed apart in the source
[10] = system: Plasmodium falciparum; assay: Inhibition of Plasmodium falciparum K1 as [3H]hypoxanthine uptake; assay type: functional, organism-based
[11] = target: T2, Thioredoxin reductase; assay: Binding affinity to Plasmodium falciparum TrxR in presence of thioredoxin
[12] = target: T2, Thioredoxin reductase; assay: Binding affinity to Plasmodium falciparum TrxR in presence of NADPH

Structure (SMILES)	IC50 [2] [µM]	IC50 [3] [µM]	also measured
O=[N+]([O-])c1ccc2c(c1)OCO2	> 200	–	inhibition [1]: < 10%
O=[N+]([O-])c1cc2nccnc2cc1[N+](=O)[O-]	140	2	inhibition [4]: 27%; inhibition [5]: 39%; IC50 [6]: 15 µM; inhibition [7]: 15%; inhibition [8]: 15%; inhibition [9]: 70%
O=[N+]([O-])c1cc([N+](=O)[O-])cc(C(F)(F)F)c1	> 200	30	–
O=[N+]([O-])c1cc(C(F)(F)F)ccc1Sc1ccc(C(F)(F)F)cc1[N+](=O)[O-]	> 150	20	–
O=[N+]([O-])c1cccc2nsnc12	50	2	IC50 [10]: 2.9 µM; inhibition [4]: 81%; inhibition [5]: 69%; Ki [11]: 0.65 µM; Ki [12]: 1 µM; IC50 [6]: 11 µM
O=[N+]([O-])c1ccc2nsnc2c1	90	10	–
O=[N+]([O-])c1ccc2nccnc2c1	> 200	40	–
O=[N+]([O-])c1cc(C(F)(F)F)cc([N+](=O)[O-])c1Cl [CHLORALIN]	100	8	–
O=[N+]([O-])c1ccc2c(c1[N+](=O)[O-])OCO2	80	10	–
